In ChEMBL document CHEMBL2046386, “Potent and selective aminopyrimidine-based B-Raf inhibitors with favorable physicochemical and pharmacokinetic properties” (J Med Chem, 2012):
Values after ≈ are worked out from the molar mass of the structure shown.

Assays:
[1] = molecular target: T1, Serine/threonine-protein kinase B-raf (Homo sapiens, UniProt P15056, V600E); experiment: Inhibition of His6X-tagged human B-raf V600E mutant expressed in baculovirus infected insect cells coexpressing […] using [gamma33P]ATP after 60 mins by scintillation counting
[2] = molecular target: T1, Serine/threonine-protein kinase B-raf; experiment: Inhibition of B-raf V600E mutant-mediated Erk phosphorylation in human MALM-3M cells by fluorometric analysis; assay type: cell-based
[3] = Dissociation constant, pKa of the compound at acidic pH; assay type: physicochemical
[4] = Dissociation constant, pKa of the compound at basic pH; assay type: physicochemical
[5] = Thermodynamic solubility of the compound at 0.5 mg/ml after 24 hrs by shake flask method at pH 1.2; assay type: physicochemical; details: buffer, read-out: Therm_solubility
[6] = Thermodynamic solubility of the compound at 0.5 mg/ml after 24 hrs by shake flask method at pH 6.5; assay type: physicochemical; details: buffer, read-out: Therm_solubility
[7] = Clearance in mouse at 2.5 mg/kg, iv; assay type: ADME, organism-based; design: dose 2.5 mg/kg, route intravenous; details: in vivo
[8] = Volume of distribution at steady state in mouse at 2.5 mg/kg, iv; assay type: ADME, organism-based; design: dose 2.5 mg/kg, route intravenous; details: in vivo, read-out: Vdss
[9] = AUC in mouse at 30 mg/kg, po dosed in 0.5% methylcellulose/0.2% Tween 80/99.3% water; assay type: ADME, organism-based; design: dose 30 mg/kg, route oral; details: in vivo
[10] = Oral bioavailability in mouse at 30 mg/kg; assay type: ADME, organism-based; details: in vivo
[11] = Plasma protein binding in mouse; assay type: ADME, cell-free; details: read-out: PPB (converted)
[12] = Lipophilicity, log P of the compound; assay type: physicochemical; details: octanol/water
[13] = AUC in mouse at 30 mg/kg, po dosed as as solution; assay type: ADME, organism-based; design: dose 30 mg/kg, route oral; details: plasma
Mus musculus = experiment: Toxicity in NCr nude mouse xenografted with human COLO205 cells expressing B-raf V600E mutant assessed as adverse effects; assay type: organism-based, COLO 205; details: in vivo
COLO 205 = experiment: Antitumor activity against human COLO205 cells expressing B-raf V600E mutant xenografted in po dosed NCr nude mouse assessed as decrease in tumor volume administered once daily for 21 days measured twice a week up to 21 days; assay type: functional
[14] = Thermodynamic solubility of the compound at 0.5 mg/ml after 24 hrs by shake flask method at pH 7.4; assay type: physicochemical; details: buffer, read-out: Therm_solubility
[15] = Mus musculus, COLO 205, po, 504 h

T1 sequence (P15056 2-766 V600E limits assumed): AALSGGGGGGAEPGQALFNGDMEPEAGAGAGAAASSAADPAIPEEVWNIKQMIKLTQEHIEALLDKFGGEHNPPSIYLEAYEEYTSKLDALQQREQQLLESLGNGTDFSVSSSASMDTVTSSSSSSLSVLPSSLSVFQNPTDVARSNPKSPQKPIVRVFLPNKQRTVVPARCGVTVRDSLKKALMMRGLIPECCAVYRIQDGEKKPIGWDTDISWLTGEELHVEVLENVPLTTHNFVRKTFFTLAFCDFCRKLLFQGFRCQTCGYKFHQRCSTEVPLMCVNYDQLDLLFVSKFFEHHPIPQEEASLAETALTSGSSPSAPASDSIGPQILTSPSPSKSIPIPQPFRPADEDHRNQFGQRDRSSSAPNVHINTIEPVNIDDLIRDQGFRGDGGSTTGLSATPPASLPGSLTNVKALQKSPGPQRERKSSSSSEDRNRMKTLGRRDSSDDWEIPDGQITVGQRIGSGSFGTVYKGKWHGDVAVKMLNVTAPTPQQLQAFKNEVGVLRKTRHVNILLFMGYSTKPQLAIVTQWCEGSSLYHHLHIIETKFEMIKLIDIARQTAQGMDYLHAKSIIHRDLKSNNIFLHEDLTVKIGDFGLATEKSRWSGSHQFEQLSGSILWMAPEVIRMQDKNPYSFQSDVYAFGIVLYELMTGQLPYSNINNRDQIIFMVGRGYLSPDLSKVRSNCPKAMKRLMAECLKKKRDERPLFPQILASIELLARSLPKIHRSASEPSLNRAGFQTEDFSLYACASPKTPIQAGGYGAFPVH

Row | Compound | IC50 [1] | IC50 [2] | pKa [4] | solubility thermodynamic at 24 h [5] | solubility thermodynamic at 24 h [6] | also measured
1 | CCCS(=O)(=O)Nc1ccc(F)c(NC(=O)c2cccc3c(N)ncnc23)c1F | 1.8 nM | 9.5 nM | 4.5 | > 1000 µg/mL | 1 µg/mL (≈ 2.37 µM) | pKa [3]: 4.5; clearance [7]: 2.5 mL/min/kg; Vd [8]: 0.4 L/kg; AUC [9]: 290 µM·h; bioavailability [10]: 71%; fraction unbound [11]: 0.015; logP [12]: 2.9; AUC [13]: 331 µM·h
2 | CCCS(=O)(=O)Nc1ccc(F)c(NC(=O)c2cccc3c(N)ncnc23)c1Cl | 0.54 nM | 7.7 nM | – | – | – | –
3 | CCCS(=O)(=O)Nc1ccc(F)c(NC(=O)Nc2cc(N)ncn2)c1F | – | 438 nM | – | – | – | –
4 | CCCS(=O)(=O)Nc1ccc(F)c(NC(=O)c2csc3c(N)ncnc23)c1F | 2.5 nM | 15 nM | 3.6 | > 1000 µg/mL | 5 µg/mL (≈ 11.7 µM) | Activity (Mus musculus): Non-toxic; clearance [7]: 1 mL/min/kg; Vd [8]: 0.2 L/kg; AUC [9]: 874 µM·h; bioavailability [10]: 100%; fraction unbound [11]: 0.016; logP [12]: 2.7
5 | CCCS(=O)(=O)Nc1ccc(Cl)c(NC(=O)c2cccc3c(N)ncnc23)c1F | 0.59 nM | 9.5 nM | – | – | – | –
6 | CCCS(=O)(=O)Nc1ccc(Cl)c(NC(=O)c2csc3c(N)ncnc23)c1F | 0.9 nM | 19 nM | – | – | – | –
7 | CCCS(=O)(=O)Nc1ccc(F)c(C(=O)Nc2cnc3[nH]nc(OC)c3c2)c1F | – | – | 0.7 | 3 µg/mL (≈ 7.05 µM) | 4 µg/mL (≈ 9.4 µM) | TGI (COLO 205): 76%; ED50 (COLO 205; [15]): 25.2 mg/kg; ED90 (COLO 205; [15]): 139 mg/kg; pKa [3]: 0.7; solubility thermodynamic at 24 h [14]: 9 µg/mL (≈ 21.2 µM)
8 | CCCS(=O)(=O)Nc1ccc(F)c(NC(=O)Nc2ncnc3[nH]ncc23)c1F | 5.6 nM | 88 nM | – | 7 µg/mL (≈ 17 µM) | – | –
